{"source": "PubChem BioAssay (NCI)", "experiment_in_all_cases": "DTP human tumour cell line panel, 48 h", "key": {"[1]": {"test_system": "786-0 renal"}, "[2]": {"test_system": "A498 renal"}, "[3]": {"test_system": "ACHN renal"}, "[4]": {"test_system": "BT-549 breast"}, "[5]": {"test_system": "CAKI-1 renal"}, "[6]": {"test_system": "COLO 205 colon"}, "[7]": {"test_system": "DU-145 prostate"}, "[8]": {"test_system": "EKVX NSCLC"}, "[9]": {"test_system": "HCT-116 colon"}, "[10]": {"test_system": "HCT-15 colon"}, "[11]": {"test_system": "HOP-62 NSCLC"}, "[12]": {"test_system": "HOP-92 NSCLC"}, "[13]": {"test_system": "HT29 colon"}, "[14]": {"test_system": "KM12 colon"}, "[15]": {"test_system": "LOX IMVI melanoma"}, "[16]": {"test_system": "MALME-3M melanoma"}, "[17]": {"test_system": "MDA-MB-231 breast"}, "[18]": {"test_system": "MDA-MB-435"}, "[19]": {"test_system": "MDA-N"}, "[20]": {"test_system": "MOLT-4 leukemia"}, "[21]": {"test_system": "NCI-H226 lung"}, "[22]": {"test_system": "NCI-H23 lung"}, "[23]": {"test_system": "NCI-H460 lung"}, "[24]": {"test_system": "NCI-H522 lung"}, "[25]": {"test_system": "NCI/ADR-RES ovarian"}, "[26]": {"test_system": "OVCAR-3 ovarian"}, "[27]": {"test_system": "OVCAR-4 ovarian"}, "[28]": {"test_system": "OVCAR-5 ovarian"}, "[29]": {"test_system": "OVCAR-8 ovarian"}, "[30]": {"test_system": "RPMI-8226 leukemia"}, "[31]": {"test_system": "RXF 393 renal"}, "[32]": {"test_system": "SF-268 CNS"}, "[33]": {"test_system": "SF-295 CNS"}, "[34]": {"test_system": "SF-539 CNS"}, "[35]": {"test_system": "SK-MEL-28 melanoma"}, "[36]": {"test_system": "SK-MEL-5 melanoma"}, "[37]": {"test_system": "SK-OV-3 ovarian"}, "[38]": {"test_system": "SN12C renal"}, "[39]": {"test_system": "SNB-75 CNS"}, "[40]": {"test_system": "SW-620 colon"}, "[41]": {"test_system": "T-47D breast"}, "[42]": {"test_system": "TK-10 renal"}, "[43]": {"test_system": "U251 CNS"}, "[44]": {"test_system": "UACC-257 melanoma"}, "[45]": {"test_system": "A549 NSCLC"}, "[46]": {"test_system": "HCC-2998 colon"}, "[47]": {"test_system": "HL-60(TB) leukemia"}, "[48]": {"test_system": "HS 578T breast"}, "[49]": {"test_system": "IGROV1 ovarian"}, "[50]": {"test_system": "K-562 leukemia"}, "[51]": {"test_system": "M14 melanoma"}, "[52]": {"test_system": "PC-3 prostate"}, "[53]": {"test_system": "SK-MEL-2 melanoma"}, "[54]": {"test_system": "SNB-19 CNS"}, "[55]": {"test_system": "SR leukemia"}, "[56]": {"test_system": "UACC-62 melanoma"}, "[57]": {"test_system": "UO-31 renal"}}, "note": "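How tested: cells in 96-well plates exposed to compound for 48 hours at five concentrations. TGI: concentration producing complete growth inhibition.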", "data": [{"compound": "N#Cc1c(-c2ccccc2)cc(Nc2cccc(C(F)(F)F)c2)n2c1nc1ccccc12", "values": [{"measurement": "TGI", "setting": "[1]", "result": 6.57, "unit": "µM"}, {"measurement": "TGI", "setting": "[2]", "result": 12.6, "unit": "µM"}, {"measurement": "TGI", "setting": "[3]", "result": 11.1, "unit": "µM"}, {"measurement": "TGI", "setting": "[4]", "result": 14.1, "unit": "µM"}, {"measurement": "TGI", "setting": "[5]", "result": 13.1, "unit": "µM"}, {"measurement": "TGI", "setting": "[6]", "result": 2.39, "unit": "µM"}, {"measurement": "TGI", "setting": "[7]", "result": 19.7, "unit": "µM"}, {"measurement": "TGI", "setting": "[8]", "result": 10, "unit": "µM"}, {"measurement": "TGI", "setting": "[9]", "result": 3.52, "unit": "µM"}, {"measurement": "TGI", "setting": "[10]", "result": 10.2, "unit": "µM"}, {"measurement": "TGI", "setting": "[11]", "result": 9.81, "unit": "µM"}, {"measurement": "TGI", "setting": "[12]", "result": 0.769, "unit": "µM"}, {"measurement": "TGI", "setting": "[13]", "result": 4.6, "unit": "µM"}, {"measurement": "TGI", "setting": "[14]", "result": 30.5, "unit": "µM"}, {"measurement": "TGI", "setting": "[15]", "result": 3.95, "unit": "µM"}, {"measurement": "TGI", "setting": "[16]", "result": 8.32, "unit": "µM"}, {"measurement": "TGI", "setting": "[17]", "result": 9.85, "unit": "µM"}, {"measurement": "TGI", "setting": "[18]", "result": 17.1, "unit": "µM"}, {"measurement": "TGI", "setting": "[19]", "result": 10.3, "unit": "µM"}, {"measurement": "TGI", "setting": "[20]", "result": 41, "unit": "µM"}, {"measurement": "TGI", "setting": "[21]", "result": 4.74, "unit": "µM"}, {"measurement": "TGI", "setting": "[22]", "result": 3.63, "unit": "µM"}, {"measurement": "TGI", "setting": "[23]", "result": 17.7, "unit": "µM"}, {"measurement": "TGI", "setting": "[24]", "result": 1.37, "unit": "µM"}, {"measurement": "TGI", "setting": "[25]", "result": 7.15, "unit": "µM"}, {"measurement": "TGI", "setting": "[26]", "result": 5.58, "unit": "µM"}, {"measurement": "TGI", "setting": "[27]", "result": 22.2, "unit": "µM"}, {"measurement": "TGI", "setting": "[28]", "result": 10.7, "unit": "µM"}, {"measurement": "TGI", "setting": "[29]", "result": 10.3, "unit": "µM"}, {"measurement": "TGI", "setting": "[30]", "result": 6.74, "unit": "µM"}, {"measurement": "TGI", "setting": "[31]", "result": 11.9, "unit": "µM"}, {"measurement": "TGI", "setting": "[32]", "result": 11.5, "unit": "µM"}, {"measurement": "TGI", "setting": "[33]", "result": 12.6, "unit": "µM"}, {"measurement": "TGI", "setting": "[34]", "result": 5.06, "unit": "µM"}, {"measurement": "TGI", "setting": "[35]", "result": 21.8, "unit": "µM"}, {"measurement": "TGI", "setting": "[36]", "result": 1.78, "unit": "µM"}, {"measurement": "TGI", "setting": "[37]", "result": 8.73, "unit": "µM"}, {"measurement": "TGI", "setting": "[38]", "result": 4.34, "unit": "µM"}, {"measurement": "TGI", "setting": "[39]", "result": 9.53, "unit": "µM"}, {"measurement": "TGI", "setting": "[40]", "result": 14.2, "unit": "µM"}, {"measurement": "TGI", "setting": "[41]", "result": 21.1, "unit": "µM"}, {"measurement": "TGI", "setting": "[42]", "result": 17.8, "unit": "µM"}, {"measurement": "TGI", "setting": "[43]", "result": 10.3, "unit": "µM"}, {"measurement": "TGI", "setting": "[44]", "result": 9.76, "unit": "µM"}]}, {"compound": "O=C(O)Cc1cc(O)c(CC(=O)O)cc1O", "values": [{"measurement": "TGI", "setting": "[1]", "result": "> 100", "unit": "µM"}, {"measurement": "TGI", "setting": "[2]", "result": "> 100", "unit": "µM"}, {"measurement": "TGI", "setting": "[45]", "result": "> 100", "unit": "µM"}, {"measurement": "TGI", "setting": "[3]", "result": "> 100", "unit": "µM"}, {"measurement": "TGI", "setting": "[4]", "result": "> 100", "unit": "µM"}, {"measurement": "TGI", "setting": "[5]", "result": "> 100", "unit": "µM"}, {"measurement": "TGI", "setting": "[7]", "result": "> 100", "unit": "µM"}, {"measurement": "TGI", "setting": "[8]", "result": "> 100", "unit": "µM"}, {"measurement": "TGI", "setting": "[46]", "result": "> 100", "unit": "µM"}, {"measurement": "TGI", "setting": "[9]", "result": "> 100", "unit": "µM"}, {"measurement": "TGI", "setting": "[10]", "result": "> 100", "unit": "µM"}, {"measurement": "TGI", "setting": "[47]", "result": "> 100", "unit": "µM"}, {"measurement": "TGI", "setting": "[11]", "result": "> 100", "unit": "µM"}, {"measurement": "TGI", "setting": "[12]", "result": "> 100", "unit": "µM"}, {"measurement": "TGI", "setting": "[48]", "result": "> 100", "unit": "µM"}, {"measurement": "TGI", "setting": "[13]", "result": "> 100", "unit": "µM"}, {"measurement": "TGI", "setting": "[49]", "result": "> 100", "unit": "µM"}, {"measurement": "TGI", "setting": "[50]", "result": "> 100", "unit": "µM"}, {"measurement": "TGI", "setting": "[14]", "result": "> 100", "unit": "µM"}, {"measurement": "TGI", "setting": "[15]", "result": "> 100", "unit": "µM"}, {"measurement": "TGI", "setting": "[51]", "result": "> 100", "unit": "µM"}, {"measurement": "TGI", "setting": "[16]", "result": "> 100", "unit": "µM"}, {"measurement": "TGI", "setting": "[17]", "result": "> 100", "unit": "µM"}, {"measurement": "TGI", "setting": "[18]", "result": "> 100", "unit": "µM"}, {"measurement": "TGI", "setting": "[19]", "result": "> 100", "unit": "µM"}, {"measurement": "TGI", "setting": "[20]", "result": "> 100", "unit": "µM"}, {"measurement": "TGI", "setting": "[21]", "result": "> 100", "unit": "µM"}, {"measurement": "TGI", "setting": "[22]", "result": "> 100", "unit": "µM"}, {"measurement": "TGI", "setting": "[23]", "result": "> 100", "unit": "µM"}, {"measurement": "TGI", "setting": "[24]", "result": "> 100", "unit": "µM"}, {"measurement": "TGI", "setting": "[25]", "result": "> 100", "unit": "µM"}, {"measurement": "TGI", "setting": "[26]", "result": "> 100", "unit": "µM"}, {"measurement": "TGI", "setting": "[27]", "result": "> 100", "unit": "µM"}, {"measurement": "TGI", "setting": "[28]", "result": "> 100", "unit": "µM"}, {"measurement": "TGI", "setting": "[29]", "result": "> 100", "unit": "µM"}, {"measurement": "TGI", "setting": "[52]", "result": "> 100", "unit": "µM"}, {"measurement": "TGI", "setting": "[31]", "result": "> 100", "unit": "µM"}, {"measurement": "TGI", "setting": "[32]", "result": "> 100", "unit": "µM"}, {"measurement": "TGI", "setting": "[33]", "result": "> 100", "unit": "µM"}, {"measurement": "TGI", "setting": "[53]", "result": "> 100", "unit": "µM"}, {"measurement": "TGI", "setting": "[35]", "result": "> 100", "unit": "µM"}, {"measurement": "TGI", "setting": "[36]", "result": "> 100", "unit": "µM"}, {"measurement": "TGI", "setting": "[38]", "result": "> 100", "unit": "µM"}, {"measurement": "TGI", "setting": "[54]", "result": "> 100", "unit": "µM"}, {"measurement": "TGI", "setting": "[55]", "result": "> 100", "unit": "µM"}, {"measurement": "TGI", "setting": "[40]", "result": "> 100", "unit": "µM"}, {"measurement": "TGI", "setting": "[41]", "result": "> 100", "unit": "µM"}, {"measurement": "TGI", "setting": "[42]", "result": "> 100", "unit": "µM"}, {"measurement": "TGI", "setting": "[43]", "result": "> 100", "unit": "µM"}, {"measurement": "TGI", "setting": "[44]", "result": "> 100", "unit": "µM"}, {"measurement": "TGI", "setting": "[56]", "result": "> 100", "unit": "µM"}, {"measurement": "TGI", "setting": "[57]", "result": "> 100", "unit": "µM"}]}]}
